# Test system: LTB4 release from neutrophils
# Test: A23187 induced LTB4 release
# Format: cell-based
# Details: Neutrophil; neutrophils from healthy human donors, test drug 1 hour at 37° C., 0.3 μg/ml A23187 10 min, LTB4 ELISA; range over the group of compounds; read-out: IC50, percent inhibition of LTB4 release
# Protocol: The compounds of the present invention are tested in one or more of the assays described herein. Standard assays are used to evaluate activity of compounds in present invention on inflammatory cells. Attenuation of agonist-induced release of lipid mediator of neutrophil chemotaxis, leukotriene B4 (LTB4), is used to evaluate inhibitory effect on neutrophils.
# Venous blood was collected from healthy human donors using heparin as an anti-coagulant. Neutrophils were isolated from freshly drawn blood after dextran sedimentation and ficoll separation (Eur J. Biochem. 169, 175, 1987). 180 μl of the of neutrophil suspension (0.2×10^6 cells/ml) was taken and added 19 μL of Hank's Buffer salt solution along with 1 μL of the test drug (200 times concentrated) in a 24 well plate and incubated at 37° C. for 1 hour. 3 minutes before the end of test compound incubation, 0.25 mM Ca^++/Mg^++ were added. Then, 0.3 μg/ml A23187 (Sigma Chem, USA) was added and incubated for further 10 min at 37° C. The reaction was stopped by adding 80 μL of cold methanol and centrifuged to remove cell debris (J Pharmacol Exp Ther. 297:267, 2001). The samples were analysed for LTB4 release using LTB4 ELISA kits (Assay Design Inc., USA). The amount of LTB4 released was quantified and percent inhibition of LTB4 release was calculated with respect to the difference between the A23187 stimulated and negative control cells, to compute IC50 values.
row,SMILES,IC50
1,"CCCCCCCCCCCCOCC12OC(CNC(=O)Cc3ccc(F)cc3)C(O)C1OC(C)(C)O2 [Compound 69, 1-O-Dodecyl-2,3-O-isopropylidene-6-deoxy-6-{[(4-fluorophenyl)acetyl}amino]-α-L-sorbofuranoside]",≥ 1300 nM
2,"CCCCCCCCCCCCOCC12OC(CNC(=O)c3ccncc3)C(O)C1OC(C)(C)O2 [Compound 78, 1-O-Dodecyl-2,3-O-isopropylidene-6-deoxy-6-{[(pyridin-4-yl)-carbonyl]-amino}-α-L-sorbofuranoside]",≥ 1300 nM
3,"CCCCCCCCCCCCOCC12OC(CNC(=O)Cc3ccc(Cl)c(Cl)c3)C(O)C1OC(C)(C)O2 [Compound 94, 1-O-Dodecyl-2,3-O-isopropylidene-6-deoxy-6-{[(3,4-dichlorophenyl)acetyl]amino}-α-L-sorbofuranoside]",≥ 1300 nM
4,"CCCCCCCCCCCCOCC12OC(CNC(=O)Cc3ccc(OC(F)(F)F)cc3)C(O)C1OC(C)(C)O2 [Compound 106, 1-O-Dodecyl-2,3-O-isopropylidene-6-deoxy-6-{[(4-trifluoromethoxyphenyl)acetyl]amino}-α-L-sorbofuranoside]",≥ 1300 nM
5,"CCCCCCCOCC12OC(C)C(C)(OC(=O)NS(=O)(=O)c3ccc(Cl)cc3)C1OC(C)(C)O2 [Compound 116, (4ξ)-1-O-Heptyl-2,3-O-isopropylidene-4-C-methyl-4-O-[{[(4-chlorophenyl)sulphonyl]amino}-carbonyl]-6-deoxy-α-L-erythro-hex-2-ulofuranoside]",≥ 1300 nM
6,"CCCCCCCOCC12OC(C)C(C)(OC(=O)NS(=O)(=O)c3ccccc3)C1OC(C)(C)O2 [Compound 117, (4ξ)-1-O-Heptyl-2,3-O-isopropylidene-4-C-methyl-4-O-[{[phenylsulphonyl]amino}carbonyl]-6-deoxy-α-L-erythro-hex-2-ulofuranoside]",≥ 1300 nM
7,"CCCCCCCOCC12OC(C)C(C)(OC(=O)NS(=O)(=O)c3ccc(F)cc3)C1OC(C)(C)O2 [Compound 118, (4ξ)-1-O-Heptyl-2,3-O-isopropylidene-4-C-methyl-4-O-[{[(4-fluorophenyl)sulphonyl]amino}-carbonyl]-6-deoxy-α-L-erythro-hex-2-ulofuranoside]",≥ 1300 nM

# Reference: patent publication US20100113371A9, “Derivatives Of Pentose Monosaccharides As Anti-Inflammatory Compounds” (RANBAXY LABORATORIES LIMITED INC., priority 2004, published 2010)
